Measured values from PMC7051831 (ACS chemical biology, 2019).
Entries after “also recorded” stand apart in the source; their conditions may differ. Where two headings read alike, the source gives them in different places.

Tests used:
[1] = cited from earlier work
interleukin-1β (IL-1β) [2] = target: T1, interleukin-1β (IL-1β) (Homo sapiens, UniProt P01584); experiment: ethanol titration under standard bulk conditions compared with RM titration
interleukin-1β (IL-1β) [3] = target: T1, interleukin-1β (IL-1β); format: binding; conditions: IL-1β in LDAO/10MAG reverse micelles; for extent of binding across the protein surface (in words): Figure 1
[4] = alkane/water partitioning by simple NMR method; format: physicochemical; conditions: alkane (pentane)/water partitioning

T1 sequence (P01584 117-269): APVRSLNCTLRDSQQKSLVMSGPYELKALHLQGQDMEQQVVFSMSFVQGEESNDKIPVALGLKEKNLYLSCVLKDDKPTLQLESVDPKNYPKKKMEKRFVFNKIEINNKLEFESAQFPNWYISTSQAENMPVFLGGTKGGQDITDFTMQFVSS

CCCCCCCCCCCC[N+](C)(C)[O-] [LDAO]
pKa [1]: ~ 5

CCO [ethanol]
binding in RMs compared with bulk (in words) (interleukin-1β (IL-1β) [2]): binds slightly more weakly to the protein in RMs than in bulk | binding affinity (in words) (interleukin-1β (IL-1β) [3]): more specific and with a relatively higher affinity | extent of binding across the protein surface (in words) (interleukin-1β (IL-1β) [3]): binding is limited to fewer sites | binding affinity (in words) (interleukin-1β (IL-1β) [3]; listed as Ethanol): relatively high binding affinity within a narrow Kd range

CC#N [acetonitrile]
fraction of molecules retained in the RM [4]: over one-third | binding affinity (in words) (interleukin-1β (IL-1β) [3]): more diffuse and weak | extent of binding across the protein surface (in words) (interleukin-1β (IL-1β) [3]): relatively sparse binding across the protein surface | binding affinity (in words) (interleukin-1β (IL-1β) [3]; listed as Acetonitrile): relatively weak binding affinities

c1c[nH]cn1 [imidazole]
binding affinity (in words) (interleukin-1β (IL-1β) [3]): more specific and with a relatively higher affinity | extent of binding across the protein surface (in words) (interleukin-1β (IL-1β) [3]): bind at a larger number of sites

CNC(C)=O [N-methylacetamide]
binding affinity (in words) (interleukin-1β (IL-1β) [3]): relatively weak binding affinities; also recorded: more diffuse and weak | extent of binding across the protein surface (in words) (interleukin-1β (IL-1β) [3]): relatively sparse binding across the protein surface

c1cncnc1 [pyrimidine]
fraction of molecules retained in the RM [4]: over one-third | extent of binding across the protein surface (in words) (interleukin-1β (IL-1β) [3]): bind at a larger number of sites

CN [methylammonium]
extent of binding across the protein surface (in words) (interleukin-1β (IL-1β) [3]): bind at a larger number of sites
